Test results from publication PMC8015083 (ACS Omega, 2021).
Values after ≈ are worked out from the molar mass of the structure shown. Values joined by “and” are separate entries in the source; they are usually repeats but may differ in a detail not shown here. Equal values may be shown once. Read-outs that look alike come from different tables or passages of the source.

How the values were obtained:
C. neoformans = test: microbe, parasite or virus in culture; assay type: cell-based, Cryptococcus neoformans; conditions: for MIC80: Cryptococcus neoformans
C. neoformans KN99 [1] = assay type: cell-based, Cryptococcus neoformans
[2] = human, in vivo; cited from earlier work
C. neoformans KN99 [3] = assay type: cell-based, Cryptococcus neoformans; remark: listed apart in the source
M. furfur = test: microbe, parasite or virus in culture; assay type: cell-based; conditions: Malassezia furfur, read-out: MIC80 in M. furfur
[4] = test system: C. neoformans aox1Δ strain; assay type: cell-based, Cryptococcus neoformans
M. pachydermatis = test: microbe, parasite or virus in culture; assay type: cell-based; conditions: Malassezia pachydermatis, read-out: MIC80 in M. pachydermatis
C. neoformans KN99 [5] = test: microbe, parasite or virus in culture; assay type: cell-based; conditions: Cryptococcus neoformans, KN99, 48 h, read-out: C. neo MIC80

Compound: C[C@@H]1[C@H](O)[C@@H](C)/C=C/C=C/C=C/C=C/C=C/C=C/C=C/[C@H](O[C@@H]2O[C@H](C)[C@@H](O)[C@H](N)[C@@H]2O)C[C@@H]2O[C@](O)(C[C@@H](O)C[C@@H](O)[C@H](O)CC[C@@H](O)C[C@@H](O)CC(=O)O[C@H]1C)C[C@H](O)[C@H]2C(=O)O [AMB, amphotericin B]
- MIC80 (C. neoformans; read-out: MIC80 alone, AMB): 1.5 µM (≈ 1.39 µg/mL)

Compound: Cc1cc(-c2ccc(S(=O)(=O)O)cc2)c2ccc3c(-c4ccc(S(=O)(=O)O)cc4)cc(C)nc3c2n1 [BCS, bathocuproinedisulfonic acid]
- MIC80 alone, BCS (C. neoformans): >200 µM

Compound: Cc1cc(C2CCCCC2)n(O)c(=O)c1 [CPO, Ciclopirox olamine]
- killing of the cells (C. neoformans KN99 [1]): 99.9%
- tolerability of oral dosing [2]: well tolerated
- rescue of inhibition by exogenous copper (C. neoformans KN99 [3]): partially rescued
- rescue of inhibition by exogenous iron (C. neoformans KN99 [3]): fully rescued
- rescue of inhibition by zinc (C. neoformans KN99 [3]): did not rescue
- MIC80 (M. furfur): ~25 µM (≈ 5.18 µg/mL)
- MIC80 in aox1Δ strain compared with wild type [4]: no difference in sensitivity
- MIC80 (M. pachydermatis): ~25 µM (≈ 5.18 µg/mL)
- FICI (C. neoformans): 0.75
- MIC (C. neoformans KN99 [5]): 0.87 µM and 0.18 µg/mL

Compound: Cc1c(O)c(=O)ccn1C [DFP, deferiprone]
- MIC80 alone, DFP (C. neoformans): 200 µM (≈ 27.8 µg/mL)
- MIC80 (C. neoformans; read-out: MIC80 alone, DFP): > 200 µM

Compound: OC(Cn1cncn1)(Cn1cncn1)c1ccc(F)cc1F [FLC, fluconazole]
- MIC80 (C. neoformans; read-out: MIC80 alone, FLC): 3 µM (≈ 0.919 µg/mL)

Compound: O=C(NO)c1ccccc1O [SHAM, salicylhydroxamic acid]
- MIC80 (C. neoformans; read-out: MIC80 alone, SHAM): 2000 µM (≈ 306 µg/mL)

Compound: Cc1cc(CC2CCCCC2)n(O)c(=O)c1 [SLU-2321]
- rescue of inhibition by exogenous copper (C. neoformans KN99 [3]): only partially rescued
- rescue of inhibition by exogenous iron (C. neoformans KN99 [3]): fully rescued
- rescue of inhibition by zinc (C. neoformans KN99 [3]): did not rescue
- FICI (C. neoformans): 0.63
- FICI in combination with CPO (C. neoformans): 0.51

Compound: Cc1cc(Cc2ccc(Cl)cc2)n(O)c(=O)c1 [SLU-2707]
- rescue of inhibition by exogenous copper (C. neoformans KN99 [3]): did not rescue
- rescue of inhibition by exogenous iron (C. neoformans KN99 [3]): fully rescued
- rescue of inhibition by zinc (C. neoformans KN99 [3]): did not rescue
- FICI (C. neoformans): 0.63
- FICI in combination with CPO (C. neoformans): 0.37

Compound: O=C(O)CC(=O)O [malonate]
- MIC80 (C. neoformans; read-out: MIC80 alone, malonate): 25 µM (≈ 2.6 µg/mL)

Compound: CO/C(=C/C(N)=O)[C@H](C)[C@H](/C=C/c1csc(-c2csc([C@@H](C)/C=C/C=C/C(C)C)n2)n1)OC [myxothiazol]
- MIC80 alone, myxothiazol (C. neoformans): 5 µM (≈ 2.44 µg/mL)

Compound: Cc1ccc2ccc3ccc(C)nc3c2n1 [neocuproine]
- MIC80 (C. neoformans; read-out: MIC80 alone, neocuproine): 0.25 µM (≈ 0.0521 µg/mL)

Compound: C=C(C)[C@H]1Cc2c(ccc3c2O[C@@H]2COc4cc(OC)c(OC)cc4[C@@H]2C3=O)O1 [rotenone]
- MIC80 (C. neoformans; read-out: MIC80 alone, rotenone): 15 µM (≈ 5.92 µg/mL)
